# pIC50: −log10 of the molar value. Read-outs that look alike come from different tables or passages of the source.
# Tests used:
# PC3 [1] = assay: MTT antiproliferative assay, PC3; assay type: cell-based; conditions: Homo sapiens, PC-3; PC3 prostate cell line, 48 hrs drug incubation
# Description: (§1) MTT assay is a simple and sensitive assay where, metabolic reducing activity of the cells is measured. The increase of this activity in time is taken as a parameter of cell growth. If treatment with a drug impairs this increase, the action may be a consequence of growth inhibition, cell killing or both. The compounds of Formula V to XIV of the present invention, standard cytotoxic drug (e.g. Cisplatin) were tested at different concentrations (1, 0.1, 0.01, 0.001 mM) using breast and prostate cancer cell lines. All cell lines were cultured in a 37° C. incubator with a 5% CO2 environment. Compounds were dissolved in DMSO with a concentration of 0.1M (stock solution). Cells were seeded into 96-well plates at suitable plating efficiency.
# (§2) Following Plating Efficiencies were Standardized for MTT Assay:
# (§3) The MTT procedure followed was as follows. Briefly, the cells were plated in 96 well plate as per predetermined plating efficiency (Table 1) The plates were then incubated for 24 hrs in 5% CO2 atmosphere at 37° C. Appropriate concentrations of the drugs were then added to the plate and further incubation was carried out for 48 hrs (in 5% CO2 atmosphere at 37° C.). The assay plate was then centrifuged twice at 3000 rpm for 3 mins and supernatant was then discarded. 100 ul of MTT solution (0.5 mg/ml) was then added to each well of the plate and it was further incubated for 4 hrs (in 5% CO2 atmosphere at 37° C.) Following 4 hr incubation, the plate was then centrifuged twice, and supernatant was aspirated off very carefully. 200 ul of DMSO was then added to each well to solubilize. MTT crystals and mixed well by shaking the plate. XY graph of log Percent viability was then plotted against log drug concentration. […] (Drug concentration inhibiting the 50% of cell population) was then calculated by regression analysis.
# normal lymphocytes [2] = test system: normal lymphocytes
# Description: (§10) In order to test the activity of cytotoxic drugs towards normal cells, we performed MTT
# (§11) Assay for these cytotoxic drugs using lymphocytes obtained from a healthy donor.
# (§12) Briefly, diluted defibrinated fresh blood was overlaid gradually on HiSeP LSM1077 and centrifuged at low speed for 30 mins. The lymphocyte layer (the buffy coat) (Fig) was carefully removed in a new collection tube. The buffy coat was given another wash, by the diluent buffer, to reduce the platelet contamination. The supernatant was discarded, and the pellet was resuspended in diluent buffer. The viability was checked by Haemocytometer. Cells with Viability and Purity of 95% and more were considered for the assay. MTT assay was performed with these cells as described above with plating efficiency of 0.7 million/ml.
# PC3 [3] = assay: Soft Agar colony-formation Assay, PC3; assay type: cell-based; conditions: Homo sapiens, PC-3, 168 h; PC3 prostate cell line, 1 week
# Description: (§4) The Soft Agar Colony-formation Assay is an anchorage-independent growth assay in soft agar, which is one of the most stringent assays for detecting malignant transformation of cells. For this assay, malignant cells are cultured with appropriate controls in soft agar medium for 1-2 weeks. Following this incubation period, formed colonies can either be analyzed morphologically using cell stain and quantifying the number of colonies formed.
# (§5) Briefly, for Soft Agar Assay a mixture of 50 ul of 2× medium (taken appropriately as per cell line) and 50 ul of 1.2% Bacto Agar were plated on to each well of 96 well micro titer assay plate. 10 ul of cells (Of specific plating efficiency pre-standardized for respective cell line) were mixed with 20 ul of 2× medium and 30 ul of 0.8% of Bacto Agar and 1.6 ul of drug (of appropriate concentration) in a vial and transferred to the solidified pre-layers of the assay plates. The cells were then allowed to grow and form colonies at 37° C. and 5% CO2 for 1 week. An intermittent feeding with 50 ul of appropriate 2× medium was performed after 3 days of experimental set up. 16 ul of Alamar Blue (1.5 mg/ml) was then added to all the wells to quantify the developed colonies. The plates were incubated for 24 hrs at 37° C. Absorbance was then measured at 630 nm. XY graph of log Percent viability was then plotted against log drug concentration. IC50 (Drug concentration inhibiting the 50% of cell population) was then calculated by regression analysis.
# (§6) Following Plating Efficiencies Were Standardized for Soft Agar Assay: […]
# spheres of MDAMB231 = assay: In vitro sphere-forming assay, MDAMB231 in Mammosphere media; assay type: cell-based; conditions: 2000 cells/well, n = 6 ± S.D
# From the text: (§7) Sphere assay measures the ability of Cancer Stein Cells to form spheres in specially designed serum-free medium. We have used this assay to measure the killing efficiency of the test compounds as compared to the standard chemotherapeutic drug, Cisplatin.
# (§8) Materials and Reagents:50× B27 Supplement (Life Technologies, Invitrogen, Catalog No.: 17502-044), Fibroblast Growth Factor (FGF) (Sigma-Aldrich, Catlog No.: F029125), Epidermal Growth Factor (EGF) (Sigma-Aldrich, Catlog No.: E9644), Insulin (Sigma, Catlog No.: 19278), Dulbecco's Modified Eagle Medium/F12 (HiMedia Catlog No.: AL139-6), Dulbecco's Phosphate Buffered Saline (HiMedia Catlog No.: TL1006), Trypan Blue (TC193), Prostate Epithelial Media (LONZA, Catlog No.: CC-3166) MEGM (LONZA, Catlog No.: CC-3051), Heparin (Sigma, Catlog No.: H3393), Penstrep (HiMedia, Catlog No.: A002)
# Mammosphere Media Preparation (For 100 mL): 1 g methyl cellulose autoclaved with magnetic stirrer Plain media (MEBM), 100 mL added and dissolved under magnetic stirring. After complete dissolution, add: FGF-80 μL, EGF-40 μL, Penstrep-1 mL, Heparin-400 μL.
# (§9) Procedure: —The cells were trypsinised and made into single-cell suspension by passing through cell strainers ([…], respectively), The cells were diluted at the concentration of 2000 cells/100 μL and suspended in either Mammosphere (for breast cell lines) or Prostosphere (for prostate cell lines). 100 μL of this suspension was added into each well of 96-well suspension plates and incubated at 37° C., 5% CO2 for 24 hrs. Appropriate concentrations of the drugs (2 μL) were added into respective wells with 100 μL of stem cell culture medium. Plates were incubated at 37° C., 5% CO2 for 72 hrs. After incubation 2.5 μL of the respective drug concentration and 50 μL of stem cell culture medium were added into each well and the plates were further incubated at 37° C., 5% CO2 for 72 hrs. 3 μL of the respective drug concentration was added with 50 μL of stem cell culture medium again after incubation and plates were incubated again for 72 hrs at 37° C., 5% CO2. Number of primary spheres formed for each concentration was counted. A comparative graph of number of spheres formed was plotted against the concentration and the growth curve was compared with the positive control.
# spheres of PC3 = assay: In vitro sphere-forming assay, PC3 in Prostosphere media; assay type: cell-based; conditions: 2000 cells/well, n = 6 ± S.D
# From the text: as §7, §8
# Prostosphere Media Preparation (For 100 mL):1 g methyl cellulose autoclaved with magnetic stirrer, Plain media (Prostate Epithelial Basal Medium), 100 mL added and dissolved, under magnetic stirring. After complete dissolution, add: Insulin-40 μL, B27-2 mL, EGF-80 μL, Penstrep-1 ml.
# as §9
# MDAMB231 [4] = assay: MTT antiproliferative assay, MDAMB231; assay type: cell-based; conditions: Homo sapiens, MDA-MB-231; MDAMB231 breast cell line, 48 hrs drug incubation
# Description: as §1, §2, §3
# MDAMB231 [5] = assay: Soft Agar colony-formation Assay, MDAMB231; assay type: cell-based; conditions: Homo sapiens, MDA-MB-231, 168 h; MDAMB231 breast cell line, 1 week
# Description: as §4, §5, §6
# normal lymphocytes [6] = assay: Normal cell assay (MTT) on lymphocytes from a healthy donor
# Description: as §10, §11, §12
# MCF7 = assay: MTT antiproliferative assay, MCF7; assay type: cell-based; conditions: Homo sapiens, MCF7; MCF-7 breast cell line, 48 hrs drug incubation
# Description: as §1, §2, §3
# DU145 = assay: MTT antiproliferative assay, DU145; assay type: cell-based; conditions: Homo sapiens, DU-145; DU145 prostate cell line, 48 hrs drug incubation
# Description: as §1, §2, §3
pIC50 (PC3 [1]),activity on normal lymphocytes (normal lymphocytes [2]),pIC50 (PC3 [3]),pIC50 (MDAMB231 [4]),pIC50 (MDAMB231 [5]),activity on normal lymphocytes (normal lymphocytes [6]),pIC50 (MCF7),pIC50 (DU145),SMILES,3D sphere count of MDAMB231 (spheres of MDAMB231; drug conc 0.025 uM),3D sphere count of MDAMB231 (spheres of MDAMB231; drug conc 0.25 uM),3D sphere count of MDAMB231 (spheres of MDAMB231; drug conc 2.5 uM),3D sphere count of MDAMB231 (spheres of MDAMB231; drug conc 25 uM),3D sphere count of MDAMB231 (spheres of MDAMB231; drug conc 250 uM),3D sphere count of PC3 (spheres of PC3; drug conc 0.025 uM),3D sphere count of PC3 (spheres of PC3; drug conc 0.25 uM),3D sphere count of PC3 (spheres of PC3; drug conc 2.5 uM),3D sphere count of PC3 (spheres of PC3; drug conc 25 uM),3D sphere count of PC3 (spheres of PC3; drug conc 250 uM)
5.21,does not show activity,4.97,5.34,5.46,,,,"CO[C@H]1[C@H](OC)COC(Oc2ccc(-c3ccc4c(c3)OCO4)c3ccccc23)[C@@H]1O (stereo partly drawn) [Formula V, (3R,4R,5R)-2-(4-(benzo[d][1,3]dioxol-5-yl)naphthalen-1-yloxy)-4,5-dimethoxy-tetrahydro-2H-pyran-3-ol]",40(±3),24(±3),12(±1),7(±2),0(±0),50(±5),40(±5),36(±3),21(±4),0(±0)
5.20,,6.44,5.69,5.10,does not show activity,5.56,5.45,"COc1cc2c(OC(=O)c3cccn3C)c3c(c(-c4ccc5c(c4)OCO5)c2cc1OC)C(=O)OC3 [Formula VII, 9-(benzo[d][1,3]dioxol-5-yl)-6,7-dimethoxy-1-oxo-1,3-dihydronaphtho[2,3-c]furan-4-yl 1-methyl-1H-pyrrole-2-carboxylate]",47(±4),46(±7),40(±7),40(±3),0(±0),64(±8),31(±5),23(±3),9(±2),0(±0)
5.41,,5.71,5.50,5.88,does not show activity,5.98,5.37,"COc1cc2c(OC(=O)C(c3ccccc3)C3CCCC3)c3c(c(-c4ccc5c(c4)OCO5)c2cc1OC)C(=O)OC3 (stereo not shown) [Formula VIII, 9-(benzo[d][1,3]dioxol-5-yl)-6,7-dimethoxy-1-oxo-1,3-dihydronaphtho[2,3-c]furan-4-yl 2-cyclopentyl-2-phenylacetate]",36(±3),29(±4),13(±2),8(±2),0(±0),29(±3),24(±3),13(±3),8(±2),0(±0)

# From US11680078B2, “Anticancer compounds” (GODAVARI BIOREFINERIES LIMITED, priority 2017, dated 2023)
